According to patent US20260356819A1, “OXOISOINDOLINYL-SUBSTITUTED […] DERIVATIVE AND USE THEREOF” (GLUETACS THERAPEUTICS (SHANGHAI) CO., LTD., priority 2023, published 2026):

Experiments:
Assay type in all cases: cell-based
Conditions in all cases: compounds at 50 nM and 500 nM
IKZF3 = target: T1, IKZF3 (Homo sapiens, UniProt Q96SW2+Q9UKT9); experiment: Western blot degradation of IKZF3 in hPBMCs (24 h)
T1 construct: The supernatant was aspirated as the extracted total cell protein; endogenous in cells; host or cells: human peripheral blood mononuclear cells (hPBMCs)
Procedure, shortened: (§1)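 Compounds were tested at 50 nM and 500 nM on hPBMCs (1×10^6 cells/mL) for 24 h, alongside DMSO. Proteins were detected by Western blot after denaturation at 95 °C; remaining protein computed from normalised band grayscale.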

WEE1 = target: T2, WEE1 (Homo sapiens, UniProt P30291+Q96SW2); experiment: Western blot degradation of WEE1 in hPBMCs (24 h)
T2 construct: The supernatant was aspirated as the extracted total cell protein; endogenous in cells; host or cells: human peripheral blood mononuclear cells (hPBMCs)
T2 sequence (P30291 whole entry): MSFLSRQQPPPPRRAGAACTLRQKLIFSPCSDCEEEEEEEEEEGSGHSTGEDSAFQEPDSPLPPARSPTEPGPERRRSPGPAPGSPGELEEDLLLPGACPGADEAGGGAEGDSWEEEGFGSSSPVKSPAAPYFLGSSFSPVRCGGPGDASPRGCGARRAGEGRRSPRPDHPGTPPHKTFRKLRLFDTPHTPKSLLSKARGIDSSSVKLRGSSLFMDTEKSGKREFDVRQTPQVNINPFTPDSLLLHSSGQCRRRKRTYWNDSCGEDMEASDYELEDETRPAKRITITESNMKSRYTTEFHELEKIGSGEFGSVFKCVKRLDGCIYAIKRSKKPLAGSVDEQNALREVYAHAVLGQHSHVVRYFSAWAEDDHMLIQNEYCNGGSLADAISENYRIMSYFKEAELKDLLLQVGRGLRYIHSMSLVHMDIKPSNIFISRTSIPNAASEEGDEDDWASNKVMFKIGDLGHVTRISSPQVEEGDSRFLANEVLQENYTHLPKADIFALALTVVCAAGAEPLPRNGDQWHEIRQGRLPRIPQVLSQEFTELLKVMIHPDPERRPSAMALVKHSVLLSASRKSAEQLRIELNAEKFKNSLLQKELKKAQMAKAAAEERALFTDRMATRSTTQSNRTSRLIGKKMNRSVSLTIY
T2 sequence (Q96SW2 whole entry): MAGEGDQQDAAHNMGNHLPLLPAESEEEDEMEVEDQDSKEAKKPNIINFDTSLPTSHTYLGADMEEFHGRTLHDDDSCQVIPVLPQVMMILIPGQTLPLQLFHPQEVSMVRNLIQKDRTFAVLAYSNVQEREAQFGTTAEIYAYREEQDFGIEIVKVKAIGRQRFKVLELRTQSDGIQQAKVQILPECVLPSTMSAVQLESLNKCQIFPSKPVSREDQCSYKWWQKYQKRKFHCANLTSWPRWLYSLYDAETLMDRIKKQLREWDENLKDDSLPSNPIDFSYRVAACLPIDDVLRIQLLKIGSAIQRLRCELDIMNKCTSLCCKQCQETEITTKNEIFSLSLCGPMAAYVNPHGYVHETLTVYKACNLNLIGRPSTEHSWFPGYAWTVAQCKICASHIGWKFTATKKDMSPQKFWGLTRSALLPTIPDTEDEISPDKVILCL
T2 sequence (Q16531 whole entry partner): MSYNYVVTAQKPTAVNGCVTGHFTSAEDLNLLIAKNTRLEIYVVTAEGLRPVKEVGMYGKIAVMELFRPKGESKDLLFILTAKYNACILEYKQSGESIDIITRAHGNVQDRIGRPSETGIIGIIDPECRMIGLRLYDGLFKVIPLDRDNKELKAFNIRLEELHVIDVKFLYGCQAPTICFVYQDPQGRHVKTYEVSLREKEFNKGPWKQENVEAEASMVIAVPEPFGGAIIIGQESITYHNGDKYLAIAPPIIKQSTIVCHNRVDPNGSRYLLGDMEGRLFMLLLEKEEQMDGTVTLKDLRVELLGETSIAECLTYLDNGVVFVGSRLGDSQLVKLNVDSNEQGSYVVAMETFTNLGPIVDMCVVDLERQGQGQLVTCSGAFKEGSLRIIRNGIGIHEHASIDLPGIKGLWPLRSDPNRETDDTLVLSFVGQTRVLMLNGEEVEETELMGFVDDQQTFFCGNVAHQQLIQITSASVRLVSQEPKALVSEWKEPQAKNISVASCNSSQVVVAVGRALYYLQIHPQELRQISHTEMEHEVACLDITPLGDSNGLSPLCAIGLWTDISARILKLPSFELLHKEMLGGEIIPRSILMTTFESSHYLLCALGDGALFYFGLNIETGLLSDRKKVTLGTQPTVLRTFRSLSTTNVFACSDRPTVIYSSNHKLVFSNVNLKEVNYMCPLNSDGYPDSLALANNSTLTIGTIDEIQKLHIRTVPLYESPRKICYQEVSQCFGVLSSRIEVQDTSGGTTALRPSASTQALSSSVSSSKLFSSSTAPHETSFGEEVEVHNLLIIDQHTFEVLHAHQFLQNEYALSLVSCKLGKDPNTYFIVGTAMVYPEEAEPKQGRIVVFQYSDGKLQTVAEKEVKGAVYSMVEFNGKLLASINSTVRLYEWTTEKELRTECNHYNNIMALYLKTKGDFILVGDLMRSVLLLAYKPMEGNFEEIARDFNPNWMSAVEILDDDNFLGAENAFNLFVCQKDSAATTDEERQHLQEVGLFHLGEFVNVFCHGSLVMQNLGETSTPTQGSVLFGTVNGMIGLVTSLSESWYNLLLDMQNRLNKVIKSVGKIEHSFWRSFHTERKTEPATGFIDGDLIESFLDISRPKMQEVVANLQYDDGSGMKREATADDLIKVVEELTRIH
Procedure, shortened: as §1

IKZF1 = target: T3, IKZF1 (Homo sapiens, UniProt Q13422+Q96SW2); experiment: Western blot degradation of IKZF1 in hPBMCs (24 h)
T3 construct: The supernatant was aspirated as the extracted total cell protein; endogenous in cells; host or cells: human peripheral blood mononuclear cells (hPBMCs)
T3 sequence (Q13422 whole entry): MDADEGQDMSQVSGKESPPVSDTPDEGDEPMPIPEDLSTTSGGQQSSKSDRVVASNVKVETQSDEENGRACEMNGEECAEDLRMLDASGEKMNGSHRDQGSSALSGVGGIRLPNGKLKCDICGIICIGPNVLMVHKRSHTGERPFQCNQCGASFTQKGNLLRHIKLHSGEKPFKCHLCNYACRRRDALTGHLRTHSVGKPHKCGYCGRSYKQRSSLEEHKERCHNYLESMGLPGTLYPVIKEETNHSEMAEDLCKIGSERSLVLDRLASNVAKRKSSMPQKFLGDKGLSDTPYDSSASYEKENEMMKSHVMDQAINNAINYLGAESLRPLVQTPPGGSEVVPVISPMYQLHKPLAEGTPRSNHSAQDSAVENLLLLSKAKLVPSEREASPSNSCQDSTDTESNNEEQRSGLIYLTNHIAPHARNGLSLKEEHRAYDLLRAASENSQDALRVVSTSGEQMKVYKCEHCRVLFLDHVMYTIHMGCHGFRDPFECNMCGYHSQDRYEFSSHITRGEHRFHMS
T3 sequence (Q96SW2 whole entry): as the sequence (Q96SW2 whole entry) above
T3 sequence (Q16531 whole entry partner): as the sequence (Q16531 whole entry partner) above
Procedure, shortened: as §1

GSPT1 = target: T4, GSPT1 (Homo sapiens, UniProt P15170+Q96SW2); experiment: Western blot degradation of GSPT1 in hPBMCs (24 h)
T4 construct: The supernatant was aspirated as the extracted total cell protein; endogenous in cells; host or cells: human peripheral blood mononuclear cells (hPBMCs)
T4 sequence (P15170 whole entry): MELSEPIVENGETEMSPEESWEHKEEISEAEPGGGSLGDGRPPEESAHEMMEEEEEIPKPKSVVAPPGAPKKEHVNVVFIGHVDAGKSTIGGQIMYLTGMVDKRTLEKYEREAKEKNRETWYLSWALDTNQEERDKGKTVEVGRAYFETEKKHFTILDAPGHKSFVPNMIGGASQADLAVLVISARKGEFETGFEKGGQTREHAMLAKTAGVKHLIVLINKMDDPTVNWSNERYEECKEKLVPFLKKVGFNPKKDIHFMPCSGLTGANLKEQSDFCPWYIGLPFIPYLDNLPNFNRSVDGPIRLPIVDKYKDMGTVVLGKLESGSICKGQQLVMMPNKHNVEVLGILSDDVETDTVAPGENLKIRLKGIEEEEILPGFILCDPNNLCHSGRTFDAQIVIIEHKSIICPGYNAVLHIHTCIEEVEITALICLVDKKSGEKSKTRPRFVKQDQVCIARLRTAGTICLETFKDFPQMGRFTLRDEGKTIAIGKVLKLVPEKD
T4 sequence (Q96SW2 whole entry): as the sequence (Q96SW2 whole entry) above
T4 sequence (Q16531 whole entry partner): as the sequence (Q16531 whole entry partner) above
Procedure, shortened: as §1

IKZF2 = target: T5, IKZF2 (Homo sapiens, UniProt Q96SW2+Q9UKS7); experiment: Western blot degradation of IKZF2 in hPBMCs (24 h)
T5 construct: The supernatant was aspirated as the extracted total cell protein; endogenous in cells; host or cells: human peripheral blood mononuclear cells (hPBMCs)
T5 sequence (Q9UKS7 whole entry): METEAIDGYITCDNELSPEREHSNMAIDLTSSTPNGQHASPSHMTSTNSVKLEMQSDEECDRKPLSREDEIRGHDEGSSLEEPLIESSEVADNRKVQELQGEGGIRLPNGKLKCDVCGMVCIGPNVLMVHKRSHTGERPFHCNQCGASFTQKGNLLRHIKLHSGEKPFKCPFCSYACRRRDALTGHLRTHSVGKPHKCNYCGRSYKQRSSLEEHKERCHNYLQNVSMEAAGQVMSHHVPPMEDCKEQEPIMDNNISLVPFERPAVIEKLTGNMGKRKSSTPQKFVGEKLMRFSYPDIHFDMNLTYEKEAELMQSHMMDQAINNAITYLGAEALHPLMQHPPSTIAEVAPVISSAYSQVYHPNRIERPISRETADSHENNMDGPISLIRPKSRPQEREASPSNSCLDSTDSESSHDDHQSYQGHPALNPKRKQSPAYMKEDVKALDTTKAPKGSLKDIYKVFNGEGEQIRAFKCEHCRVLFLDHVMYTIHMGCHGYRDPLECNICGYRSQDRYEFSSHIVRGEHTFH
T5 sequence (Q96SW2 whole entry): as the sequence (Q96SW2 whole entry) above
T5 sequence (Q16531 whole entry partner): as the sequence (Q16531 whole entry partner) above
Procedure, shortened: as §1

CK1α = target: T6, CK1α (Homo sapiens, UniProt P48729+Q96SW2); experiment: Western blot degradation of CK1α in hPBMCs (24 h)
T6 construct: The supernatant was aspirated as the extracted total cell protein; endogenous in cells; host or cells: human peripheral blood mononuclear cells (hPBMCs)
T6 sequence (P48729 whole entry): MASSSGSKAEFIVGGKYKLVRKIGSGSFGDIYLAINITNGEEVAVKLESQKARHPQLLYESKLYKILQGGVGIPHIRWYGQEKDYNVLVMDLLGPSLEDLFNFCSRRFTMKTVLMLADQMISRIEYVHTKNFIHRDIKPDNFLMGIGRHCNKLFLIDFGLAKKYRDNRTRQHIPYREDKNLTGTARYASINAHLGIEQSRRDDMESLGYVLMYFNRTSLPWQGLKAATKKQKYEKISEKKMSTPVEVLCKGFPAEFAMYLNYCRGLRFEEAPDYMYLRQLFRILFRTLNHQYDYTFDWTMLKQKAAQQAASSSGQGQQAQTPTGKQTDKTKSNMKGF
T6 sequence (Q96SW2 whole entry): as the sequence (Q96SW2 whole entry) above
T6 sequence (Q16531 whole entry partner): as the sequence (Q16531 whole entry partner) above
Procedure, shortened: as §1

| SMILES | IKZF3 substrate protein remaining % (IKZF3) | WEE1 substrate protein remaining % (WEE1) | IKZF1 substrate protein remaining % (IKZF1) | GSPT1 substrate protein remaining % (GSPT1) | IKZF2 substrate protein remaining % (IKZF2) | CK1α substrate protein remaining % (CK1α) |
| --- | --- | --- | --- | --- | --- | --- |
| O=C1CCN(N2C(=O)c3ccc(CN4CCN(c5ccc(F)cc5)CC4)cc3C2=O)C(=O)N1 [GT-06725, 2-(2,4-dioxotetrahydropyrimidin-1(2H)-yl)-5-((4-(4-fluorophenyl)piperazin-1-yl)methyl)isoindoline-1,3-dione] | B (80%< substrate protein remaining % ≤100%) | B (80%< substrate protein remaining % ≤100%) | A (0% ≤ substrate protein remaining % ≤80%) | B (80%< substrate protein remaining % ≤100%) | B (80%< substrate protein remaining % ≤100%) | B (80%< substrate protein remaining % ≤100%) |
| O=C1CCN(N2C(=O)c3ccc(CN4CCN(c5ccccc5Cl)CC4)cc3C2=O)C(=O)N1 [GT-06726, 5-((4-(2-chlorophenyl)piperazin-1-yl)methyl)-2-(2,4-dioxotetrahydropyrimidin-1(2H)-yl)isoindoline-1,3-dione] | A (0% ≤ substrate protein remaining % ≤80%) | A (0% ≤ substrate protein remaining % ≤80%) | B (80%< substrate protein remaining % ≤100%) | B (80%< substrate protein remaining % ≤100%) | A (0% ≤ substrate protein remaining % ≤80%) | A (0% ≤ substrate protein remaining % ≤80%) |
| O=C1CCN(N2C(=O)c3ccc(CN4CCN(c5ccccc5Br)CC4)cc3C2=O)C(=O)N1 [GT-06727, 5-((4-(2-bromophenyl)piperazin-1-yl)methyl)-2-(2,4-dioxotetrahydropyrimidin-1(2H)-yl)isoindoline-1,3-dione] | A (0% ≤ substrate protein remaining % ≤80%) | B (80%< substrate protein remaining % ≤100%) | B (80%< substrate protein remaining % ≤100%) | B (80%< substrate protein remaining % ≤100%) | A (0% ≤ substrate protein remaining % ≤80%) | A (0% ≤ substrate protein remaining % ≤80%) |
| COc1ccc(N2CCN(Cc3ccc4c(c3)C(=O)N(N3CCC(=O)NC3=O)C4=O)CC2)cc1 [GT-06728, 2-(2,4-dioxotetrahydropyrimidin-1(2H)-yl)-5-((4-(4-methoxyphenyl)piperazin-1-yl)methyl)isoindoline-1,3-dione] | A (0% ≤ substrate protein remaining % ≤80%) | B (80%< substrate protein remaining % ≤100%) | B (80%< substrate protein remaining % ≤100%) | B (80%< substrate protein remaining % ≤100%) | A (0% ≤ substrate protein remaining % ≤80%) | A (0% ≤ substrate protein remaining % ≤80%) |
| COc1ccc(N2CCN(Cc3ccc4c(c3)CN(N3CCC(=O)NC3=O)C4=O)CC2)cc1 [GT-06767, 1-(5-((4-(4-methoxyphenyl)piperazin-1-yl)methyl)-1-oxoisoindolin-2-yl)dihydropyrimidine-2,4(1H,3H)-dione] | A (0% ≤ substrate protein remaining % ≤80%) | A (0% ≤ substrate protein remaining % ≤80%) | A (0% ≤ substrate protein remaining % ≤80%) | A (0% ≤ substrate protein remaining % ≤80%) | A (0% ≤ substrate protein remaining % ≤80%) | A (0% ≤ substrate protein remaining % ≤80%) |
| O=C1CCN(N2Cc3cc(CN4CCN(c5ccc(Br)cc5)CC4)ccc3C2=O)C(=O)N1 [GT-06768, 1-(5-((4-(4-bromophenyl)piperazin-1-yl)methyl)-1-oxoisoindolin-2-yl)dihydropyrimidine-2,4(1H,3H)-dione] | A (0% ≤ substrate protein remaining % ≤80%) | A (0% ≤ substrate protein remaining % ≤80%) | B (80%< substrate protein remaining % ≤100%) | A (0% ≤ substrate protein remaining % ≤80%) | B (80%< substrate protein remaining % ≤100%) | A (0% ≤ substrate protein remaining % ≤80%) |
| Cc1ccccc1N1CCN(Cc2ccc3c(c2)CN(N2CCC(=O)NC2=O)C3=O)CC1 [GT-06769, 1-(1-oxo-5-((4-(o-tolyl)piperazin-1-yl)methyl)isoindolin-2-yl)dihydropyrimidine-2,4(1H,3H)-dione] | A (0% ≤ substrate protein remaining % ≤80%) | A (0% ≤ substrate protein remaining % ≤80%) | B (80%< substrate protein remaining % ≤100%) | A (0% ≤ substrate protein remaining % ≤80%) | A (0% ≤ substrate protein remaining % ≤80%) | A (0% ≤ substrate protein remaining % ≤80%) |
| Cc1ccc(N2CCN(Cc3ccc4c(c3)CN(N3CCC(=O)NC3=O)C4=O)CC2)cc1 [GT-06771, 1-(1-oxo-5-((4-(p-tolyl)piperazin-1-yl)methyl)isoindolin-2-yl)dihydropyrimidine-2,4(1H,3H)-dione] | A (0% ≤ substrate protein remaining % ≤80%) | A (0% ≤ substrate protein remaining % ≤80%) | B (80%< substrate protein remaining % ≤100%) | A (0% ≤ substrate protein remaining % ≤80%) | A (0% ≤ substrate protein remaining % ≤80%) | A (0% ≤ substrate protein remaining % ≤80%) |
| O=C1CCN(N2Cc3cc(CN4CCN(c5ccc(Cl)cc5Cl)CC4)ccc3C2=O)C(=O)N1 [GT-06772, 1-(5-((4-(2,4-dichlorophenyl)piperazin-1-yl)methyl)-1-oxoisoindolin-2-yl)dihydropyrimidine-2,4(1H,3H)-dione] | A (0% ≤ substrate protein remaining % ≤80%) | A (0% ≤ substrate protein remaining % ≤80%) | B (80%< substrate protein remaining % ≤100%) | A (0% ≤ substrate protein remaining % ≤80%) | A (0% ≤ substrate protein remaining % ≤80%) | A (0% ≤ substrate protein remaining % ≤80%) |
| O=C1CCN(N2Cc3cc(CN4CCN(c5c(Cl)cccc5Cl)CC4)ccc3C2=O)C(=O)N1 [GT-06774, 1-(5-((4-(2,6-dichlorophenyl)piperazin-1-yl)methyl)-1-oxoisoindolin-2-yl)dihydropyrimidine-2,4(1H,3H)-dione] | A (0% ≤ substrate protein remaining % ≤80%) | B (80%< substrate protein remaining % ≤100%) | B (80%< substrate protein remaining % ≤100%) | A (0% ≤ substrate protein remaining % ≤80%) | A (0% ≤ substrate protein remaining % ≤80%) | A (0% ≤ substrate protein remaining % ≤80%) |
| O=C1CCN(N2Cc3cc(CN4CCN(c5ccc(Cl)c(Cl)c5)CC4)ccc3C2=O)C(=O)N1 [GT-06775, 1-(5-((4-(3,4-dichlorophenyl)piperazin-1-yl)methyl)-1-oxoisoindolin-2-yl)dihydropyrimidine-2,4(1H,3H)-dione] | A (0% ≤ substrate protein remaining % ≤80%) | B (80%< substrate protein remaining % ≤100%) | B (80%< substrate protein remaining % ≤100%) | A (0% ≤ substrate protein remaining % ≤80%) | A (0% ≤ substrate protein remaining % ≤80%) | A (0% ≤ substrate protein remaining % ≤80%) |
| O=C1CCN(N2Cc3cc(CN4CCN(c5ccc(F)cc5F)CC4)ccc3C2=O)C(=O)N1 [GT-06778, 1-(5-((4-(2,4-difluorophenyl)piperazin-1-yl)methyl)-1-oxoisoindolin-2-yl)dihydropyrimidine-2,4(1H,3H)-dione] | B (80%< substrate protein remaining % ≤100%) | B (80%< substrate protein remaining % ≤100%) | B (80%< substrate protein remaining % ≤100%) | A (0% ≤ substrate protein remaining % ≤80%) | B (80%< substrate protein remaining % ≤100%) | A (0% ≤ substrate protein remaining % ≤80%) |
| O=C1CCN(N2Cc3cc(CN4CCN(c5cc(F)ccc5F)CC4)ccc3C2=O)C(=O)N1 [GT-06779, 1-(5-((4-(2,5-difluorophenyl)piperazin-1-yl)methyl)-1-oxoisoindolin-2-yl)dihydropyrimidine-2,4(1H,3H)-dione] | B (80%< substrate protein remaining % ≤100%) | B (80%< substrate protein remaining % ≤100%) | B (80%< substrate protein remaining % ≤100%) | B (80%< substrate protein remaining % ≤100%) | B (80%< substrate protein remaining % ≤100%) | A (0% ≤ substrate protein remaining % ≤80%) |
